Data on two molecules can be found in patent publication EP4417607A1, “HETEROCYCLIC COMPOUND AS SOS1 INHIBITOR AND USES THEREOF” (Nanjing Zaiming Pharmaceutical Co., Ltd., priority 2021, dated 2023).

A word on the efflux ratio: it is the permeability from basolateral to apical divided by that in the opposite direction, in the common usage. What is called Papp A→B is how fast a substance crosses the layer from the apical side. The Papp B→A is the apparent permeability from the basolateral to the apical side of a cell layer.

The nature of series [1]: Caco-2 membrane permeability and transport. The class given is in vitro ADME. To be noted: human, pH 7.4; for Papp A→B at 2 h, 10 µM: Caco-2, apical to basal; for Papp B→A at 2 h, 10 µM: Caco-2, basal to apical. The protocol: The membrane permeability and transport properties of the compound of the present disclosure were determined using the following method. • I. Experimental materials and instruments • 1. Caco-2 cells (ATCC) • 2. HEPES (Solarbio 804D049), penicillin/streptomycin (Solarbio 20200109), Trypsin/EDTA (Solarbio), and PBS (Solarbio 20200620) • 3. Fetal Bovine Serum (FBS) (Sigma WXBD0055V), lucifer yellow (Sigma MKCJ3738), and NaHCO3 (Sigma SLBZ4647) • 4. Hank's balanced salt solution (Gibco 2085528), non-essential amino acid (NEAA) (Gibco 2211548), and Trypsin/EDTA (Gibco 2120732) • 5. High glucose DMEM (Corning 20319014) • 6. HTS Transwell-96 Well Permeable (Corning, 3391) • 7. Resistance detector (Millipore, Millicell® ERS-2) • 8. Cellometer® Vision (Nexcelom Bioscience) • 9. Infinite 200 PRO microplate reader (Tecan, Infinite M200PRO) • 10. Positive control compound metoprolol (Sinopharm 100084-201403), erythromycin (MCE 84550), and cimetidine (Sinopharm 100158-201406) • 11. ABI QTrap 5500 liquid chromatography-mass spectrometry system • II. Procedures • 1. Caco-2 cell culture • 1) Preparation of transport buffer (HBSS containing 25 mM HEPES, pH 7.4): 5.958 g HEPES and 0.35 g NaHCOs were accurately weighed and dissolved in 900 mL pure water. 100 mL of 10× HBSS was then added and stirred well. The pH was adjusted to 7.4, and the mixture was filtered. • 2) Preparation of Caco-2 cell culture medium: FBS, penicillin, streptomycin, kanamycin, and NEAA were added to a high glucose DMEM (containing L-glutamine) culture medium to prepare a cell culture medium containing 10% FBS, 0.1 mg/mL streptomycin, 100 units penicillin, 0.6 µg/mL kanamycin, and 1× NEAA. • 3) Cells were cultured with a T-75 flask at 37 °C with 5% CO2 in an incubator. The culture medium was discarded when cell density reached 80-90%. The cells were rinsed with 5 mL PBS. 1.5 mL Trypsin/EDTA was added. The mixture was incubated at 37 °C for 5-10 min in an incubator until the cells shed like quicksand. Finally the Trypsin/EDTA was neutralized with a FBS-containing culture medium. • 4) The cell suspension was centrifuged at 120 × g for 10 min, and the supernatant was discarded. • 5) The cells were resuspended in a cell culture medium. The cell suspension was adjusted to a density of 6.86 × 10^5 cells/mL. • 2. Caco-2 cell inoculation • 1) 50 µL of culture medium was added to the Transwell chamber per well. 25 mL of culture medium was added to the lower chamber, and the chamber was preheated at 37 °C for 1 h with 5% CO2 in an incubator. • 2) 50 µL of the cell suspension was added to the preheated Transwell chamber per well at a final density of 2.4 × 10^5 cells/cm^2 • 3) The cells were cultured for 14-18 days. The culture medium was replaced every other day, and the culture medium was replaced within 48 h after the initial inoculation. The culture medium had to be replaced the day before the experiment. • 3. Evaluation of integrity of monolayer cell membrane • 1) The cells fused and differentiated after 14 days of culture and were ready for a transport experiment. • 2) The resistance of the monolayer membrane was measured using a resistance detector. […] Transport experiment • 1) A 10 mM stock solution of the compound of the present disclosure or the positive control compound was diluted with DMSO to give a 2 mM stock solution. The 2 mM stock solution was then diluted with the transport buffer to give a 10 µM working solution of the compound of the present disclosure or the positive control compound. • 2) The Caco-2 cell plate was taken out from the incubator, washed twice with the pre-heated transport buffer, and incubated at 37 °C in an incubator for 30 min. • 3) To determine the transport rate of the compound from the apical end to the basal end (A → B), 108 µL of the working solution of the compound was added to the Transwell chamber (apical end), while 8 µL of the sample was immediately taken from the apical end to 72 µL of the transport buffer. […]
For orientation: Caco-2 monolayers are a common model of the intestinal barrier.

In series [2] the test system is DLD-1 cell subcutaneous tumor model. Kind of series: Growth inhibition in DLD-1 cell subcutaneous tumor model. The class given is in vivo, NU/NU mice. The settings on record: for TGI(%): 15 mg/kg, PO, BID, DLD-1 subcutaneous tumor, NU/NU mice. An excerpt:
• Human colorectal cancer DLD-1 cell: ATCC, CCL-221 • RPMI-1640 culture medium: Gibco, REF: 61870-036 • Fetal bovine serum: Gibco, REF: 10091-148 • 0.25% trypsin-EDTA: Gibco, REF: 25200-072 • D-PBS (phosphate-buffered saline without calcium and magnesium ions): Hyclone, Cat. No.: SH30256.01 • Matrigel: Corning, Cat. No.: 356237
• Animal information: NU/NU mice, female, aged 6-7 weeks, 24-30 g, purchased from Beijing Vital River Biotechnology Co., Ltd. • Cell culture: human colon cancer cell strain DLD-1 was cultured in vitro under the conditions of RPMI-1640 (cell culture medium) added with 10% fetal bovine serum and 1% Pen Strep (Gibco penicillin-streptomycin diabody), and an incubator at 37 °C with 5% CO2. The cells were digested with a 0.25% trypsin-EDTA digestive solution twice a week for passaging as per conventional practice. When cell confluence was 80%-90% and a required amount was achieved, the cells were collected and counted. Cell inoculation: 0.1 mL/(containing 5×10^6) DLD-1 cell suspension (RPMI-1640: Matrigel, volume ratio 1: 1) was inoculated subcutaneously into the right lumbar dorsal part of each mouse. On day 6 after inoculation of the cells, the mice were randomly grouped and administrated based on tumor volume. The day when random grouping was performed was day 0.
Tumor diameters were measured twice weekly using a vernier caliper. The tumor volume was calculated using the following formula: V = 0.5a × b^2, where a and b represent the long diameter and short diameter of the tumor, respectively. Mouse body weight was measured twice weekly.
The anti-tumor therapeutic effect of the compound was evaluated by tumor growth inhibition rate TGI (%). TGI (%) = [(1 - (average tumor volume at the end of administration in a treatment group - average tumor volume at the start of administration of the treatment group)) / (average tumor volume at the end of treatment of the solvent control group - average tumor volume at the start of treatment of the solvent control group)] × 100%.

As to `[2H][C@](C)(Nc1nc(C)nc2c(N3CCOCC3)c(=O)n(C3(CF)CC3)cc12)c1cccc(C(F)F)c1F` [Example 55, (R)-4-((1-(3-(difluoromethyl)-2-fluorophenyl)ethyl-1-d)amino)-6-(1-(fluoromethyl)cyclopropyl)-2-methyl-8-morpholinylpyrido[4,3-d]pyrimidine-7(6H)-one], the efflux ratio in series [1] (Caco-2, Papp (B-A)/Papp (A-B)) came out at 4.77. In addition, in series [1], the Papp A→B at 2 h, 10 µM was 5.09 ×10⁻⁶ cm/s and the Papp B→A at 2 h, 10 µM came to 24.3 ×10⁻⁶ cm/s. For the same molecule, in series [2], the “TGI(%)” value came out at 65.4%.
On to `Cc1nc(N[C@H](C)c2cccc(C(F)F)c2F)c2cn(C3(CF)CC3)c(=O)c(N3CCOC[C@@H]3C)c2n1` [Example 40, 4-(((R)-1-(3-(difluoromethyl)-2-fluorophenyl)ethyl)amino)-6-(1-(fluoromethyl)cyclopropyl)-2-methyl-8-((S)-3-methylmorpholine)pyrido[4,3-d]pyrimidine-7(6H)-one], for which, in series [1] (Caco-2, Papp (B-A)/Papp (A-B)), the efflux ratio at 2 h, 10 µM is 13.1. In addition, in series [1], the Papp A→B at 2 h, 10 µM was found to be 2.1 ×10⁻⁶ cm/s and the Papp B→A at 2 h, 10 µM came to 27.6 ×10⁻⁶ cm/s. Also, in series [2] (15 mg/kg orally twice a day, P < 0.0001), the “inhibitory effect on tumor growth” value is “significant inhibitory effect on tumor growth”. In series [2], the “TGI(%)” value came to 59.0%.
